Test results published in patent US6949548B2, “Combination therapy for the treatment of heart failure” (Orion Corporation, priority 2001, dated 2005).

System: heart failure patients
Assay: Effect of the combination on the mortality of heart failure patients
Format: in vivo, human
Description: Effect of the Combination on the Mortality of Heart Failure Patients
A 6-hour infusion of levosimendan using a bolus of 6, 12 or 24 μg/kg and subsequent infusion of 0.1, 0.2 or 0.4 μg/kg/min was given to heart failure patients with or without concomitant use of a beta-blocker. The 72-hour, 14-day and 180 day mortality was measured. It can be seen that the combination provided synergistic reduction in the mortality of the heart failure patients.

[1] = LS 6 + 0.1 (bolus 6 μg/kg, infusion 0.1 μg/kg/min, 6-hour), did not receive beta-blocker, N = 60
[2] = LS 6 + 0.1 (bolus 6 μg/kg, infusion 0.1 μg/kg/min, 6-hour), received beta-blocker, N = 43
[3] = LS 12 + 0.2 (bolus 12 μg/kg, infusion 0.2 μg/kg/min, 6-hour), did not receive beta-blocker, N = 62
[4] = LS 12 + 0.2 (bolus 12 μg/kg, infusion 0.2 μg/kg/min, 6-hour), received beta-blocker, N = 38
[5] = LS 24 + 0.2 (bolus 24 μg/kg, infusion 0.2 μg/kg/min, 6-hour), did not receive beta-blocker, N = 67
[6] = LS 24 + 0.2 (bolus 24 μg/kg, infusion 0.2 μg/kg/min, 6-hour), received beta-blocker, N = 32
[7] = LS 24 + 0.4 (bolus 24 μg/kg, infusion 0.4 μg/kg/min, 6-hour), did not receive beta-blocker, N = 57
[8] = LS 24 + 0.4 (bolus 24 μg/kg, infusion 0.4 μg/kg/min, 6-hour), received beta-blocker, N = 42

CC1CC(=O)NN=C1c1ccc(NN=C(C#N)C#N)cc1 (single isomer, unassigned; (-)) [LS, (−)-enantiomer of [[4-(1,4,5,6-tetrahydro-4-methyl-6-oxo-3-pyridazinyl)phenyl]hydrazono]propanedinitrile] was tested, and the “14-day mortality, %” value [1] was 15.0%, the “72-hour mortality, %” value [1] was 8.3% and the “180-day mortality, %” value [1] was 50.0%. For the same compound, the “14-day mortality, %” value [2] was 9.3%, the “72-hour mortality, %” value [2] was 2.3% and the “180-day mortality, %” value [2] was 30.2%. For the same compound, the “14-day mortality, %” value [3] was 8.1%, the “72-hour mortality, %” value [3] was 1.6% and the “180-day mortality, %” value [3] was 40.3%. For the same compound, the “14-day mortality, %” value [4] was 10.5%, the “72-hour mortality, %” value [4] was 5.3% and the “180-day mortality, %” value [4] was 26.3%. For the same compound, the “14-day mortality, %” value [5] was 14.9%, the “72-hour mortality, %” value [5] was 7.5% and the “180-day mortality, %” value [5] was 46.3%. The “14-day mortality, %” value [6] was 9.4%, the “72-hour mortality, %” value [6] was 0.0% and the “180-day mortality, %” value [6] was 37.5%. For the same compound, the “14-day mortality, %” value [7] was 15.8%, the “72-hour mortality, %” value [7] was 8.8% and the “180-day mortality, %” value [7] was 45.6%. The “14-day mortality, %” value [8] was 4.8%, the “72-hour mortality, %” value [8] was 0.0% and the “180-day mortality, %” value [8] was 23.8%.
